By MIC is commonly meant the smallest concentration in the dilution series that meets the test's criterion for growth inhibition.

The record followed here is patent US11780832B2, “Lactivicin compounds, their preparation and use as antibacterial agents” (priority 2021, dated 2023).

The structures appear in SMILES notation. ≈ marks a conversion by molar mass, not a printed value.

Common to all, as to assay: MIC, CLSI broth microdilution
What all share (assay type): cell-based

Test [1] relates to Acinetobacter baumannii ATCC 19606. The following applies: ATCC19606. On the procedure:
(§1) Gram-negative and Gram-positive bacterial strains used during the in vitro minimum inhibitory concentration (MIC) determination were obtained either from the American Type Culture Collection (ATCC) or from clinical specimens. All strains were characterized genotypically and the respective antibiotic resistance markers for each strain were identified.
(§2) Isolates were sub-cultured onto appropriate media and stocked in skim milk at −80° C. Following two subcultures from frozen stock, in vitro antimicrobial susceptibility testing was performed using the Clinical and Laboratory Standards Institute (CLSI) broth microdilution method. Briefly, fresh cultures were suspended in culture media to give a final stock inoculum size of 5×10^7 colony forming units per milliliter of broth (CFU/mL). […] 100 μL of the stock solutions were added to the first wells in a 96-well plate and were then diluted using a 2-fold dilution method to give a range of 32-0.025 μg/mL. 100 μL of the bacterial suspensions were then added to the 96-well plates to give a final working inoculum size of 5×10^5 CFU/mL. The final compound concentration range was 16-0.0125 μg/mL. […] MICs for comparator agents were determined using custom-designed, in-house prepared 96-well broth microdilution panels.

For test [2], the system named is Citrobacter freundii species complex OXA-181. The following applies: Citrobacter freundii species complex, OXA-181; read-out: MIC. On the procedure:
as §1, §2

The subject of test [3] is Enterobacter cloacae species complex NDM-1. On the procedure:
as §1, §2

For test [4], the system named is Escherichia coli ATCC 25922. To be noted: ATCC25922. On the procedure:
as §1, §2

For a further test, the system named is Escherichia coli CMY-2. The following applies: CMY2. On the procedure:
as §1, §2

In test [5] the test system is Escherichia coli CTX-M-15. To be noted: CTXM15. On the procedure:
as §1, §2

Test [6] deals with Escherichia coli Empty pSMART plasmid. On the procedure: as §1, §2
Test [7] relates to Escherichia coli Isogenic TEM-10. On the procedure: as §1, §2
The test system of test [8] is Escherichia coli Isogenic TEM-26. On the procedure: as §1, §2
A further test concerns Escherichia coli SHV-12. To be noted: SHV12. On the procedure: as §1, §2
Test [9] relates to Escherichia coli pSMART_Cfreundii_AmpC. On the procedure: as §1, §2
Test [10] relates to Escherichia coli pSMART_Ecloacae_AmpC. On the procedure: as §1, §2
The subject of test [11] is Klebsiella aerogenes VIM-1, SHV-12. On the procedure: as §1, §2
Test [12] deals with Klebsiella oxytoca KPC-2, TEM-1. The following applies: KPC-2, TEM-1, read-out: MIC. On the procedure: as §1, §2
The subject of test [13] is Klebsiella pneumoniae KPC-2. To be noted: KPC2. On the procedure: as §1, §2
In test [14] the test system is Klebsiella pneumoniae KPC-3. The following applies: KPC3, KPC-3, read-out: MIC. On the procedure: as §1, §2
The subject of test [15] is Klebsiella pneumoniae OXA-163, OXA-1_OXA-30, SHV-1, TEM-1. On the procedure:
as §1, §2

The subject of test [16] is Klebsiella pneumoniae OXA-48, SHV-1. On the procedure:
as §1, §2

The test system of test [17] is Klebsiella pneumoniae SHV-12. The following applies: SHV12, SHV-12, read-out: MIC. On the procedure:
as §1, §2

Test [18] relates to Pseudomonas aeruginosa ATCC 27853. The following applies: ATCC27853. On the procedure:
as §1, §2

The subject of test [19] is Pseudomonas aeruginosa AmpC overexpressed. On the procedure:
as §1, §2

Test [20] deals with Pseudomonas aeruginosa OprD negative. On the procedure:
as §1, §2

In test [21] the test system is Serratia marcescens AmpC overexpressed. On the procedure:
as §1, §2

The test system of test [22] is Serratia marcescens SME-2. To be noted: SME2. On the procedure: as §1, §2

For the compound `Nc1nc(/C(=N/OC2(C(=O)O)CCC(F)(Cl)CC2)C(=O)N[C@H]2CON(C3(C(=O)O)C[C@H](N4C(=O)c5cc(O)c(O)cc5C4=O)C(=O)O3)C2=O)cs1` (stereo partly drawn) [Cmpd 11, (4S)-2-[(4S)-4-{[(2Z)-2-(2-amino-1,3-thiazol-4-yl)-2-{[(1-carboxy-4-chloro-4-fluorocyclohexyl)oxy]imino}acetyl]amino}-3-oxo-1,2-oxazolidin-2-yl]-4-(5,6-dihydroxy-1,3-dioxo-1,3-dihydro-2H-isoindol-2-yl)-5-oxooxolane-2-carboxylic acid], the MIC in test [1] was 0.25 µg/mL (≈ 0.331 µM); in [2] it was 0.03 µg/mL (≈ 0.0397 µM); in [3] it was 2 µg/mL (≈ 2.65 µM); in test [4], 0.12 µg/mL (≈ 0.159 µM); with Escherichia coli CMY-2, 1 µg/mL (≈ 1.32 µM); in test [5], 2 µg/mL (≈ 2.65 µM). In addition, the MIC was at most 0.015 µg/mL in test [6]; 0.06 µg/mL (≈ 0.0795 µM) in test [7]; 0.03 µg/mL (≈ 0.0397 µM) in test [8]; 2 µg/mL (≈ 2.65 µM) in the test on Escherichia coli SHV-12; 0.06 µg/mL (≈ 0.0795 µM) in test [9]; 0.06 µg/mL (≈ 0.0795 µM) in test [10]. The minimal inhibitory concentration (MIC) in test [11] was 0.12 µg/mL (≈ 0.159 µM); in test [12] it was at most 0.015 µg/mL; in test [13], 0.03 µg/mL (≈ 0.0397 µM); in [14], 0.06 µg/mL (≈ 0.0795 µM); in test [15] it was 0.12 µg/mL (≈ 0.159 µM); in test [16] it was at most 0.015 µg/mL. Further, the MIC in [17] came out at 0.03 µg/mL (≈ 0.0397 µM); in [18] it was 0.25 µg/mL (≈ 0.331 µM); in test [19] it was 2 µg/mL (≈ 2.65 µM); in test [20] it was 0.25 µg/mL (≈ 0.331 µM); in test [21] it was 0.06 µg/mL (≈ 0.0795 µM); in test [22], 0.06 µg/mL (≈ 0.0795 µM).

For the compound `Nc1nc(/C(=N/OC2(C(=O)O)CCC(Cl)(Cl)CC2)C(=O)N[C@H]2CON(C3(C(=O)O)C[C@H](N4C(=O)c5cc(O)c(O)cc5C4=O)C(=O)O3)C2=O)cs1` (stereo partly drawn) [Cmpd 12, (4S)-2-[(4S)-4-{[(2Z)-2-(2-amino-1,3-thiazol-4-yl)-2-{[(1-carboxy-4,4-dichlorocyclohexyl)oxy]imino}acetyl]amino}-3-oxo-1,2-oxazolidin-2-yl]-4-(5,6-dihydroxy-1,3-dioxo-1,3-dihydro-2H-isoindol-2-yl)-5-oxooxolane-2-carboxylic acid], the minimal inhibitory concentration (MIC) amounted to 0.25 µg/mL (≈ 0.324 µM) in [1]; 0.03 µg/mL (≈ 0.0389 µM) in test [2]; 2 µg/mL (≈ 2.59 µM) in test [3]; 0.25 µg/mL (≈ 0.324 µM) in test [4]; 1 µg/mL (≈ 1.3 µM) against Escherichia coli CMY-2; 4 µg/mL (≈ 5.18 µM) in [5]. For the same compound, the minimal inhibitory concentration (MIC) in [6] came to 0.03 µg/mL (≈ 0.0389 µM); in [7], 0.06 µg/mL (≈ 0.0778 µM); in [8], 0.06 µg/mL (≈ 0.0778 µM); in the test with Escherichia coli SHV-12, 2 µg/mL (≈ 2.59 µM); in test [9], 0.06 µg/mL (≈ 0.0778 µM); in test [10], 0.06 µg/mL (≈ 0.0778 µM). Also, the minimal inhibitory concentration (MIC) is 0.5 µg/mL (≈ 0.648 µM) in [11]; at most 0.015 µg/mL in [12]; 0.06 µg/mL (≈ 0.0778 µM) in test [13]; 0.06 µg/mL (≈ 0.0778 µM) in [14]; 0.12 µg/mL (≈ 0.156 µM) in test [15]; at most 0.015 µg/mL in test [16]. Also, the minimum inhibitory concentration (MIC) came to 0.03 µg/mL (≈ 0.0389 µM) in test [17]; 0.25 µg/mL (≈ 0.324 µM) in [18]; 2 µg/mL (≈ 2.59 µM) in test [19]; 0.25 µg/mL (≈ 0.324 µM) in [20]; 0.25 µg/mL (≈ 0.324 µM) in [21]; 0.12 µg/mL (≈ 0.156 µM) in test [22].
